Laboratory results taken from ChEMBL document CHEMBL1201862, “PubChem BioAssay data set” (2004).
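Growth conditions: 96-well plates. Treatment: test compound, 48 hours, 5 concentrations. Analysis: linear interpolation between bracketing concentrations; unreached endpoints set to highest concentration. At the GI50, growth is halved.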 Active and inactive are the calls of the source. No stated cut-off is given here; in the data, active = GI50 up to about 1.1 µM and inactive = higher.

Legend:
Assay in all cases: growth of human tumour cells (NCI), 48 h
786-0 = tested on: 786-0
A498 = tested on: A498
ACHN = tested on: ACHN
BT-549 = tested on: BT-549
CCRF-CEM = tested on: CCRF-CEM
COLO 205 = tested on: COLO 205
DU-145 = tested on: DU-145
HCC 2998 = tested on: HCC 2998
HCT-116 = tested on: HCT-116
HCT-15 = tested on: HCT-15
HL-60 = tested on: HL-60
HOP-62 = tested on: HOP-62
HOP-92 = tested on: HOP-92
HT-29 = tested on: HT-29
Hs-578T = tested on: Hs-578T
IGROV-1 = tested on: IGROV-1
K562 = tested on: K562
KM12 = tested on: KM12
LOX IMVI = tested on: LOX IMVI
M14 = tested on: M14
MCF7 = tested on: MCF7
MDA-MB-231 = tested on: MDA-MB-231
MDA-MB-435 = tested on: MDA-MB-435
MDA-N = tested on: MDA-N
MOLT-4 = tested on: MOLT-4
Malme-3M = tested on: Malme-3M
NCI-H226 = tested on: NCI-H226
NCI-H23 = tested on: NCI-H23
NCI-H460 = tested on: NCI-H460
NCI-H522 = tested on: NCI-H522
NCI/ADR-RES = tested on: NCI/ADR-RES
OVCAR-3 = tested on: OVCAR-3
OVCAR-4 = tested on: OVCAR-4
OVCAR-5 = tested on: OVCAR-5
OVCAR-8 = tested on: OVCAR-8
PC-3 = tested on: PC-3
RPMI-8226 = tested on: RPMI-8226
RXF 393 = tested on: RXF 393
SF-268 = tested on: SF-268
SF-295 = tested on: SF-295
SK-MEL-28 = tested on: SK-MEL-28
SK-OV-3 = tested on: SK-OV-3
SN12C = tested on: SN12C
SNB-19 = tested on: SNB-19
SNB-75 = tested on: SNB-75
SR = tested on: SR
SW-620 = tested on: SW-620
T47D = tested on: T47D
TK-10 = tested on: TK-10
U-251 = tested on: U-251
UACC-62 = tested on: UACC-62
UO-31 = tested on: UO-31
A549 = tested on: A549
CAKI-1 = tested on: CAKI-1
EKVX = tested on: EKVX
SK-MEL-5 = tested on: SK-MEL-5
UACC-257 = tested on: UACC-257
SF-539 = tested on: SF-539
SK-MEL-2 = tested on: SK-MEL-2

CCOC(=O)NC(C(F)(F)F)(C(F)(F)F)P(=O)(OCC)OCC
GI50 (786-0): 45.2 µM (inactive) | GI50 (A498): 46.3 µM (inactive) | GI50 (ACHN): 35.9 µM (inactive) | GI50 (BT-549): 34 µM (inactive) | GI50 (CCRF-CEM): 2.71 µM (inactive) | GI50 (COLO 205): 38.6 µM (inactive) | GI50 (DU-145): > 100 µM (inactive) | GI50 (HCC 2998): 75.2 µM (inactive) | GI50 (HCT-116): 31 µM (inactive) | GI50 (HCT-15): 28.8 µM | GI50 (HL-60): 65.2 µM (inactive) | GI50 (HOP-62): 78.9 µM (inactive) | GI50 (HOP-92): 81.7 µM (inactive) | GI50 (HT-29): 27.5 µM (inactive) | GI50 (Hs-578T): 16.9 µM (inactive) | GI50 (IGROV-1): 40.6 µM (inactive) | GI50 (K562): 10.9 µM (inactive) | GI50 (KM12): 43.9 µM (inactive) | GI50 (LOX IMVI): 12.4 µM (inactive) | GI50 (M14): 25.9 µM (inactive) | GI50 (MCF7): 75.2 µM (inactive) | GI50 (MDA-MB-231): > 100 µM (inactive) | GI50 (MDA-MB-435): 44.1 µM (inactive) | GI50 (MDA-N): 29.2 µM (inactive) | GI50 (MOLT-4): 4.11 µM (inactive) | GI50 (Malme-3M): 28.3 µM (inactive) | GI50 (NCI-H226): 54.1 µM (inactive) | GI50 (NCI-H23): 34.5 µM (inactive) | GI50 (NCI-H460): 31.7 µM (inactive) | GI50 (NCI-H522): 17.4 µM (inactive) | GI50 (NCI/ADR-RES): 36.7 µM (inactive) | GI50 (OVCAR-3): 45.2 µM (inactive) | GI50 (OVCAR-4): 18.7 µM (inactive) | GI50 (OVCAR-5): 57.1 µM (inactive) | GI50 (OVCAR-8): 36.6 µM (inactive) | GI50 (PC-3): 22.8 µM (inactive) | GI50 (RPMI-8226): 24 µM (inactive) | GI50 (RXF 393): 11.9 µM (inactive) | GI50 (SF-268): 42.6 µM (inactive) | GI50 (SF-295): 51.2 µM (inactive) | GI50 (SK-MEL-28): 43.4 µM (inactive) | GI50 (SK-OV-3): 34.9 µM (inactive) | GI50 (SN12C): 32.8 µM (inactive) | GI50 (SNB-19): 36.1 µM (inactive) | GI50 (SNB-75): 19.9 µM (inactive) | GI50 (SR): > 10 µM (inactive) | GI50 (SW-620): 17.9 µM (inactive) | GI50 (T47D): 42.1 µM (inactive) | GI50 (TK-10): 82 µM (inactive) | GI50 (U-251): 23.3 µM (inactive) | GI50 (UACC-62): 28 µM (inactive) | GI50 (UO-31): 24.3 µM (inactive)

O=C1c2cccc3cccc(c23)C2NCCCN12 (configuration not stated)
GI50 (786-0): > 100 µM (inactive) | GI50 (A498): > 100 µM (inactive) | GI50 (A549): > 100 µM (inactive) | GI50 (ACHN): 68.7 µM (inactive) | GI50 (BT-549): > 100 µM (inactive) | GI50 (CAKI-1): 89.3 µM (inactive) | GI50 (CCRF-CEM): 37.7 µM (inactive) | GI50 (COLO 205): > 100 µM (inactive) | GI50 (DU-145): > 100 µM (inactive) | GI50 (EKVX): 35.7 µM (inactive) | GI50 (HCC 2998): 62.5 µM (inactive) | GI50 (HCT-116): > 100 µM (inactive) | GI50 (HCT-15): > 100 µM | GI50 (HL-60): > 100 µM (inactive) | GI50 (HOP-62): > 100 µM (inactive) | GI50 (HOP-92): > 100 µM (inactive) | GI50 (HT-29): > 100 µM (inactive) | GI50 (Hs-578T): > 100 µM (inactive) | GI50 (IGROV-1): > 100 µM (inactive) | GI50 (K562): 70.3 µM (inactive) | GI50 (KM12): > 100 µM (inactive) | GI50 (LOX IMVI): > 100 µM (inactive) | GI50 (M14): > 100 µM (inactive) | GI50 (MCF7): 95.3 µM (inactive) | GI50 (MDA-MB-231): > 100 µM (inactive) | GI50 (MDA-MB-435): > 100 µM (inactive) | GI50 (MDA-N): > 100 µM (inactive) | GI50 (MOLT-4): 47.3 µM (inactive) | GI50 (Malme-3M): > 100 µM (inactive) | GI50 (NCI-H226): 52.8 µM (inactive) | GI50 (NCI-H23): > 100 µM (inactive) | GI50 (NCI-H460): > 100 µM (inactive) | GI50 (NCI-H522): 28.8 µM (inactive) | GI50 (NCI/ADR-RES): 99.1 µM (inactive) | GI50 (OVCAR-3): > 100 µM (inactive) | GI50 (OVCAR-4): > 100 µM (inactive) | GI50 (OVCAR-5): > 100 µM (inactive) | GI50 (OVCAR-8): > 100 µM (inactive) | GI50 (PC-3): > 100 µM (inactive) | GI50 (RXF 393): 42.4 µM (inactive) | GI50 (SF-268): > 100 µM (inactive) | GI50 (SF-295): > 100 µM (inactive) | GI50 (SK-MEL-28): > 100 µM (inactive) | GI50 (SK-MEL-5): 78.2 µM (inactive) | GI50 (SK-OV-3): > 100 µM (inactive) | GI50 (SN12C): > 100 µM (inactive) | GI50 (SNB-19): > 100 µM (inactive) | GI50 (SNB-75): < 0.01 µM (active) | GI50 (SR): 71 µM (inactive) | GI50 (SW-620): 94 µM (inactive) | GI50 (T47D): > 100 µM (inactive) | GI50 (TK-10): > 100 µM (inactive) | GI50 (U-251): > 100 µM (inactive) | GI50 (UACC-257): > 100 µM (inactive) | GI50 (UACC-62): > 100 µM (inactive) | GI50 (UO-31): 88.5 µM (inactive)

C=CCSC1=N/C(=C\c2ccc(C)cc2)C(=O)N1CC=C
GI50 (786-0): 18.3 µM (inactive) | GI50 (A498): 13.6 µM (inactive) | GI50 (A549): 21.3 µM (inactive) | GI50 (ACHN): 36.1 µM (inactive) | GI50 (BT-549): 23.6 µM (inactive) | GI50 (CAKI-1): 80 µM (inactive) | GI50 (COLO 205): 20.6 µM (inactive) | GI50 (DU-145): 20.7 µM (inactive) | GI50 (EKVX): 10.1 µM (inactive) | GI50 (HCC 2998): 23.8 µM (inactive) | GI50 (HCT-116): 18.4 µM (inactive) | GI50 (HCT-15): 25.3 µM | GI50 (HL-60): 12.2 µM (inactive) | GI50 (HOP-62): 64.6 µM (inactive) | GI50 (HOP-92): 11.7 µM (inactive) | GI50 (HT-29): 13.9 µM (inactive) | GI50 (Hs-578T): 54.8 µM (inactive) | GI50 (IGROV-1): 44.2 µM (inactive) | GI50 (K562): 10.4 µM (inactive) | GI50 (KM12): 23.7 µM (inactive) | GI50 (LOX IMVI): 26.5 µM (inactive) | GI50 (M14): 29 µM (inactive) | GI50 (MCF7): 20.9 µM (inactive) | GI50 (MDA-MB-231): 90.4 µM (inactive) | GI50 (MDA-MB-435): 25.9 µM (inactive) | GI50 (MDA-N): 18.6 µM (inactive) | GI50 (NCI-H23): 32.7 µM (inactive) | GI50 (NCI-H460): 34.3 µM (inactive) | GI50 (NCI-H522): 26.7 µM (inactive) | GI50 (NCI/ADR-RES): 40.5 µM (inactive) | GI50 (OVCAR-3): 57.5 µM (inactive) | GI50 (OVCAR-4): 27.3 µM (inactive) | GI50 (OVCAR-5): 25.4 µM (inactive) | GI50 (OVCAR-8): 24.8 µM (inactive) | GI50 (PC-3): 22.2 µM (inactive) | GI50 (RPMI-8226): 13.9 µM (inactive) | GI50 (RXF 393): 15.3 µM (inactive) | GI50 (SF-268): 36.6 µM (inactive) | GI50 (SF-295): 43.5 µM (inactive) | GI50 (SF-539): 25.8 µM (inactive) | GI50 (SK-MEL-28): 45.7 µM (inactive) | GI50 (SK-MEL-2): 25.8 µM (inactive) | GI50 (SK-MEL-5): 14.3 µM (inactive) | GI50 (SK-OV-3): 63.4 µM (inactive) | GI50 (SN12C): 12.7 µM (inactive) | GI50 (SNB-19): 32.4 µM (inactive) | GI50 (SR): 11.5 µM (inactive) | GI50 (SW-620): 32.4 µM (inactive) | GI50 (T47D): 25.9 µM (inactive) | GI50 (TK-10): 44.3 µM (inactive) | GI50 (U-251): 22.7 µM (inactive) | GI50 (UACC-257): 25.6 µM (inactive) | GI50 (UACC-62): 32.3 µM (inactive) | GI50 (UO-31): 22.9 µM (inactive)
